# Source: patent US20260297109A1, “COMPOUNDS AS SUMO ACTIVATING ENZYME INHIBITORS” (WIGEN BIOMEDICINE TECHNOLOGY (SHANGHAI) CO., LTD., priority 2022, published 2026)
# Target: T1, SAE (Homo sapiens, UniProt Q9UBT2)
# T1 construct: endogenous in cells; host or cells: HCT116
# T1 sequence (Q9UBT2 1-640): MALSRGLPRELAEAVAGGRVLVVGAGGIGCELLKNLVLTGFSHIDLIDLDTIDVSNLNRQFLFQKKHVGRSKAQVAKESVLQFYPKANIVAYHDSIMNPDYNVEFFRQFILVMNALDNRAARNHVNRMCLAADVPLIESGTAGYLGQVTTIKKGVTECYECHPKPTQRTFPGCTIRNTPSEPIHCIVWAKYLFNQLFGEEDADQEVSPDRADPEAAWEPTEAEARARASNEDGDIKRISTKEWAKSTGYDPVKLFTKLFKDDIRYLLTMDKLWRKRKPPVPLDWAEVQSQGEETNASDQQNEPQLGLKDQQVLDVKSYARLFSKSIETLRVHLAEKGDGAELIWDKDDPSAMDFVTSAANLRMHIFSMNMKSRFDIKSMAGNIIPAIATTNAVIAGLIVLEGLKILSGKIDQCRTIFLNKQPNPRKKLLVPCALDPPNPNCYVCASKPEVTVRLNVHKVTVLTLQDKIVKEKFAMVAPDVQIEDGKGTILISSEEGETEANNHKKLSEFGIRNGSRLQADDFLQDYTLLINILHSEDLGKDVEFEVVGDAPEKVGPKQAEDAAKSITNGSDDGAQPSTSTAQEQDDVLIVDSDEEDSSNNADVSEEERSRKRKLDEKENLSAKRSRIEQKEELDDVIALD
# T1 sequence (Q9UBE0 1-346): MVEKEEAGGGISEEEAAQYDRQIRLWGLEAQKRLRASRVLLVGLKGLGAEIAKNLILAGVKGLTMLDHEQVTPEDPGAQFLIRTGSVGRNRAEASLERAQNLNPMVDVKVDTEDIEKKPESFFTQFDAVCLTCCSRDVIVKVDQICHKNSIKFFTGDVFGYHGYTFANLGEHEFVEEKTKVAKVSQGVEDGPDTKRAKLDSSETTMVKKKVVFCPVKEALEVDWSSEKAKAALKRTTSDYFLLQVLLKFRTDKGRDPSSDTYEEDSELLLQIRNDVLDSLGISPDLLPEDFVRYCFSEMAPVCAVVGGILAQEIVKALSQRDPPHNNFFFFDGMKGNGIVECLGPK
# Assay: SUMO IF: in vitro inhibitory activity assay against SAE in HCT116 cells (SUMO-2/3 immunofluorescence)
# Format: cell-based
# Details: class symbols, 6 h at 37° C.
# Summary of the method: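 HCT116 cells were treated with compound for 6 h at 37 °C, then PFA-fixed, Triton-permeabilised and BSA-blocked. They were stained overnight at 4 °C with anti-SUMO-2/3 (18H8) rabbit mAb (1:400), then with FITC anti-rabbit IgG (1:300). Fluorescence versus DMSO gave inhibition rate and IC50.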
row,SMILES,IC50 [nM]
1,CN1Cc2sc(C(=O)c3cncnc3N[C@H]3C[C@H](O)[C@@H](COS(N)(=O)=O)[C@@H]3F)cc2[C@@]2(C1)OCCc1ccc(Cl)cc12 [Compound 724],> 200
2,NS(=O)(=O)OC[C@H]1[C@H](F)[C@@H](Nc2ncncc2C(=O)c2cc3c(s2)CC2(CC2)CC32NCCc3ccc(Cl)cc32)C[C@@H]1O (stereo partly drawn) [Compound 615],≤ 50
3,NS(=O)(=O)OC[C@H]1[C@H](F)[C@@H](Nc2ncncc2C(=O)c2cc3c(s2)C(=O)CC32NCCc3ccc(Cl)cc32)C[C@@H]1O (stereo partly drawn) [Compound 630],50 to 200
4,NS(=O)(=O)OC[C@H]1[C@H](F)[C@@H](Nc2ncncc2C(=O)c2cc3c(s2)C=CC[C@]32NCCc3ccc(Cl)cc32)C[C@@H]1O [Compound 680],≤ 50
5,NS(=O)(=O)OC[C@H]1[C@H](F)[C@@H](Nc2ncncc2C(=O)c2cc3c(s2)CCCC32NCCc3ccc(C4CC4)cc32)C[C@@H]1O (stereo partly drawn) [Compound 107],50 to 200
6,NS(=O)(=O)OC[C@H]1[C@H](F)[C@@H](Nc2ncncc2C(=O)c2cc3c(s2)CCC32NCCc3ccccc32)C[C@@H]1O (stereo partly drawn) [Compound 127],> 200
7,NS(=O)(=O)OC[C@H]1[C@H](F)[C@@H](Nc2ncncc2C(=O)c2cc3c(s2)C=C[C@@]32NCCc3ccc(F)cc32)C[C@@H]1O [Compound 345],> 200
8,CC(C)N1Cc2sc(C(=O)c3cncnc3N[C@H]3C[C@H](O)[C@@H](COS(N)(=O)=O)[C@@H]3F)cc2C2(C1)NCCc1ccc(Cl)cc12 (stereo partly drawn) [Compound 648],≤ 50
9,NS(=O)(=O)OC[C@H]1[C@H](F)[C@@H](Nc2ncncc2C(=O)c2cc3c(s2)CCC[C@]32OCCc3ccc(F)cc32)C[C@@H]1O [Compound 713],≤ 50
10,N#Cc1ccc2c(c1)[C@@]1(CCc3sc(C(=O)c4cncnc4N[C@H]4C[C@H](O)[C@@H](COS(N)(=O)=O)[C@@H]4F)cc31)OCC2 [Compound 752],≤ 50
11,NS(=O)(=O)OC[C@H]1[C@H](F)[C@@H](Nc2ncncc2C(=O)c2cc3c(s2)C=CC32NCCc3ccc(Cl)cc32)C[C@@H]1O (stereo partly drawn) [Compound 162],≤ 50
12,Cc1sc(C(=O)c2cncnc2N[C@H]2C[C@H](O)[C@@H](COS(N)(=O)=O)[C@@H]2F)cc1C1NCCc2ccc(F)cc21 (stereo partly drawn) [Compound 235],> 200
13,NS(=O)(=O)CC[C@H]1[C@H](F)[C@@H](Nc2ncncc2C(=O)c2cc3c(s2)CC[C@]32NCCc3ccc(Cl)cc32)C[C@@H]1O [Compound 642],50 to 200
14,NS(=O)(=O)OC[C@H]1[C@H](F)[C@@H](Nc2ncncc2C(=O)c2cc3c(s2)C(F)(F)C[C@@]32NCCc3ccc(Cl)cc32)C[C@@H]1O [Compound 328],> 200
15,[2H]C1([2H])Cc2ccc(Cl)cc2C2(CCCc3sc(C(=O)c4cncnc4N[C@H]4C[C@H](O)[C@@H](COS(N)(=O)=O)[C@@H]4F)cc32)N1 (stereo partly drawn) [Compound 660],50 to 200
16,CC1=C[C@]2(NCCc3ccc(F)cc32)c2cc(C(=O)c3cncnc3N[C@H]3C[C@H](O)[C@@H](COS(N)(=O)=O)[C@@H]3F)sc21 [Compound 623],50 to 200
17,NS(=O)(=O)OC[C@H]1[C@H](F)[C@@H](Nc2ncncc2C(=O)c2cc3c(s2)COCC32NCCc3ccc(Cl)c(F)c32)C[C@@H]1O (stereo partly drawn) [Compound 567],50 to 200
18,[2H]C1([2H])Cc2ccc(Cl)cc2[C@@]2(C=Cc3sc(C(=O)c4cncnc4N[C@H]4C[C@H](O)[C@@H](COS(N)(=O)=O)[C@@H]4F)cc32)N1 [Compound 701],≤ 50
19,Cc1sc(C(=O)c2cncnc2N[C@H]2C[C@H](O)[C@@H](COS(N)(=O)=O)[C@@H]2F)cc1[C@H]1NCCc2ccc(C#N)cc21 [Compound 240],> 200
20,NS(=O)(=O)OC[C@H]1[C@H](F)[C@@H](Nc2ncncc2C(=O)c2cc3c(s2)COC[C@@]32NCCc3cc(Cl)c(Cl)cc32)C[C@@H]1O [Compound 562],> 200
21,NS(=O)(=O)OC[C@H]1[C@H](F)[C@@H](Nc2ncncc2C(=O)c2cc3c(s2)CCC32NCCc3cc(Cl)ncc32)C[C@@H]1O (stereo partly drawn) [Compound 161],50 to 200
22,NS(=O)(=O)OC[C@H]1[C@H](F)[C@@H](Nc2ncncc2C(=O)c2cc3c(s2)CCCC32NC3(CC3)Cc3ccc(Cl)cc32)C[C@@H]1O (stereo partly drawn) [Compound 124],50 to 200

row,SMILES,IC50 [nM]
1,NS(=O)(=O)OC[C@H]1[C@H](F)[C@@H](Nc2ncncc2C(=O)c2cc3c(s2)CCC[C@]32NCCc3cc(Cl)c(Cl)cc32)C[C@@H]1O [Compound 672],≤ 50
2,CCN1Cc2sc(C(=O)c3cncnc3N[C@H]3C[C@H](O)[C@@H](COS(N)(=O)=O)[C@@H]3F)cc2[C@@]2(C1)OCCc1ccc(Cl)cc12 [Compound 730],> 200
3,Cc1sc(C(=O)c2cncnc2N[C@H]2C[C@H](O)[C@@H](COS(N)(=O)=O)[C@@H]2F)cc1C1NC2(CC2)Cc2ccc(Cl)cc21 (stereo partly drawn) [Compound 266],50 to 200
4,NS(=O)(=O)OC[C@H]1[C@H](F)[C@@H](Nc2ncncc2C(=O)c2cc3c(s2)CCCC32NCCc3ccc(F)cc32)C[C@@H]1O (stereo partly drawn) [Compound 91],50 to 200
5,NS(=O)(=O)OC[C@H]1[C@H](F)[C@@H](Nc2ncncc2C(=O)c2cc3c(s2)CSC[C@@]32NCCc3ccc(F)cc32)C[C@@H]1O [Compound 298],> 200
6,N#Cc1ccc2c(c1)C1(CCc3sc(C(=O)c4cncnc4N[C@H]4C[C@H](O)[C@@H](COS(N)(=O)=O)[C@@H]4F)cc31)OCC2 (stereo partly drawn) [Compound 750],50 to 200
7,NS(=O)(=O)OC[C@H]1[C@H](F)[C@@H](Nc2ncncc2C(=O)c2cc3c(s2)CC[C@]32NCCc3ccncc32)C[C@@H]1O [Compound 699],50 to 200
8,NS(=O)(=O)OC[C@H]1[C@H](F)[C@@H](Nc2ncncc2C(=O)c2cc3c(s2)CCCC32NCCc3ccc(Cl)nc32)C[C@@H]1O (stereo partly drawn) [Compound 600],≤ 50
9,COc1cc2c(cc1Cl)C(c1cc(C(=O)c3cncnc3N[C@H]3C[C@H](O)[C@@H](COS(N)(=O)=O)[C@@H]3F)sc1C)NCC2 (stereo partly drawn) [Compound 250],50 to 200
10,NS(=O)(=O)OC[C@H]1[C@H](F)[C@@H](Nc2ncncc2C(=O)c2cc3c(s2)CCC[C@]32NCCc3ccc(C(F)(F)F)cc32)C[C@@H]1O [Compound 669],50 to 200
11,CCN1Cc2sc(C(=O)c3cncnc3N[C@H]3C[C@H](O)[C@@H](COS(N)(=O)=O)[C@@H]3F)cc2C2(C1)NCCc1ccc(Cl)cc12 (stereo partly drawn) [Compound 645],≤ 50
12,CC(C)N1Cc2sc(C(=O)c3cncnc3N[C@H]3C[C@H](O)[C@@H](COS(N)(=O)=O)[C@@H]3F)cc2[C@@]2(C1)OCCc1ccc(Cl)cc12 [Compound 736],> 200
13,C=CCN1Cc2sc(C(=O)c3cncnc3N[C@H]3C[C@H](O)[C@@H](COS(N)(=O)=O)[C@@H]3F)cc2C2(C1)NCCc1ccc(Cl)cc12 (stereo partly drawn) [Compound 654],≤ 50
14,NS(=O)(=O)OC[C@H]1[C@H](F)[C@@H](Nc2ncncc2C(=O)c2cc3c(s2)CN(C2CC2)C[C@@]32OCCc3ccc(F)cc32)C[C@@H]1O [Compound 739],> 200
15,NS(=O)(=O)OC[C@H]1[C@H](F)[C@@H](Nc2ncncc2C(=O)c2cc3c(s2)C=C[C@@]32OCCc3ccc(Cl)cc32)C[C@@H]1O [Compound 760],> 200
16,NS(=O)(=O)OC[C@H]1[C@H](F)[C@@H](Nc2ncncc2C(=O)c2cc3c(s2)CCC[C@@]32OCCc3ccccc32)C[C@@H]1O [Compound 709],> 200
17,N#Cc1ccc2c(c1)[C@]1(C=Cc3sc(C(=O)c4cncnc4N[C@H]4C[C@H](O)[C@@H](COS(N)(=O)=O)[C@@H]4F)cc31)OCC2 [Compound 763],> 200
18,NS(=O)(=O)OC[C@H]1[C@H](F)[C@@H](Nc2ncncc2C(=O)c2cc3c(s2)CC[C@@]32OCCc3ccccc32)C[C@@H]1O [Compound 745],> 200
19,Cc1ccc2c(c1)C(c1cc(C(=O)c3cncnc3N[C@H]3C[C@H](O)[C@@H](COS(N)(=O)=O)[C@@H]3F)sc1C)NCC2 (stereo partly drawn) [Compound 241],50 to 200
20,NS(=O)(=O)OC[C@H]1[C@H](F)[C@@H](Nc2ncncc2C(=O)c2cc3c(s2)CSCC32NCCc3ncc(Cl)cc32)C[C@@H]1O (stereo partly drawn) [Compound 612],50 to 200
21,NS(=O)(=O)OC[C@H]1[C@H](F)[C@@H](Nc2ncncc2C(=O)c2cc3c(s2)CSCC32NCCc3cnc(Cl)cc32)C[C@@H]1O (stereo partly drawn) [Compound 606],50 to 200

# Same assay, conditions: numeric values, 6 h at 37° C.
row,SMILES,IC50 [nM]
1,CCN1Cc2sc(C(=O)c3cncnc3N[C@H]3C[C@H](O)[C@@H](COS(N)(=O)=O)[C@@H]3F)cc2[C@@]2(C1)NCCc1ccc(Cl)cc12 [Compound 646],> 1000
2,CC(C)N1Cc2sc(C(=O)c3cncnc3N[C@H]3C[C@H](O)[C@@H](COS(N)(=O)=O)[C@@H]3F)cc2[C@]2(C1)NCCc1ccc(Cl)cc12 [Compound 650],21.7
